In series [1] the target is Exodeoxyribonuclease V (Escherichia coli (strain K12), UniProt P04993+P07648+P08394). Briefly: RecBCD inhibition via phage-restricted bacterial growth – absorbance, V66 E. coli, mutant T4 phage, counter-screen for AddAB inhibitor project, dose response (AID 492957). Type of series: functional, cell-based, Escherichia coli str. K-12 substr. MG1655.
The nature of series [2]: Counterscreen for AddAB inhibitors: absorbance-based bacterial cell-based high throughput dose response assay for inhibitors of bacterial viability. [Related pubchem assays (depositor defined):AID435030, AID449728, AID449731, AID488942, AID488955, AID488956]. Format: functional. A general note: A counterscreen serves to expose hits that act by an unwanted route or on another target.

The target in series [3] is Intestinal-type alkaline phosphatase (Homo sapiens, UniProt P09923). Briefly: inhibition of human intestinal alkaline phosphatase – biochemical, dose response (AID 488876). Format: functional.
The target of series [4] is Intestinal-type alkaline phosphatase (Mus musculus, UniProt P24822). Briefly: PubChem AID 488785. Format: functional.
Series [5] addresses T1, Alkaline phosphatase, tissue-nonspecific isozyme (Homo sapiens, UniProt P05186).
T1 sequence (P05186 whole entry): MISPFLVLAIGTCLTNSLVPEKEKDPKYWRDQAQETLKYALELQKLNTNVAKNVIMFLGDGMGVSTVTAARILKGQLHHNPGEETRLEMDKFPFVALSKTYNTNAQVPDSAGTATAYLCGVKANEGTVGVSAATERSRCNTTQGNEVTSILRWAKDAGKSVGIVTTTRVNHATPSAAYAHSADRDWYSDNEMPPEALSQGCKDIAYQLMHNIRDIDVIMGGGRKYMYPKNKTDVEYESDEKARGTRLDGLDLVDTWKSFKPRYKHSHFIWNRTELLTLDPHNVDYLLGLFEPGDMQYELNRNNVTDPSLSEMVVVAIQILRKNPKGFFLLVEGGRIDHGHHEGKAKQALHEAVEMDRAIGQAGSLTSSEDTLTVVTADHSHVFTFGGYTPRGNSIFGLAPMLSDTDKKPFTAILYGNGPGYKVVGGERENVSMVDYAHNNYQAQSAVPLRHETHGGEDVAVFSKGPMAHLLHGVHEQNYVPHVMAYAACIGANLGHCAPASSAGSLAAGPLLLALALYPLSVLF
Description: TNAP enzyme inhibition by screening hits, dose response, selectivity assay for mouse IAP inhibitor project, biochemical, human TNAP, uHTS hits (AID 488906). Format: functional.

Series [6] addresses T2, Fatty acid synthase (Homo sapiens, UniProt P49327). Briefly: inhibition of human FAS-TE enzyme activity – biochemical, endpoint fluorescence intensity, uHTS hits, dose response (AID 624327).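 Also: fluorescence from hydrolysis of an O-methyl fluorescein acyl ester substrate by the enzyme.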 Format: functional.
The target of series [7] is T2, Fatty acid synthase. Description: inhibition of human FAS-TE enzyme activity – biochemical, kinetic fluorescence intensity, dose response (AID 624326).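 Also: rate of fluorescence rise from hydrolysis of a fluorogenic O-methyl fluorescein ester substrate.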 Format: functional.
The nature of series [8]: Late stage assay provider results from the probe development effort to identify inhibitors of Protein Phosphatase Methylesterase 1 (PME-1): luminescence-based […] dose response assay to determine cytotoxicity of inhibitor compounds. [Related pubchem assays (depositor defined):AID2130, AID2143, AID2171, AID2174, AID2177, AID2232, AID2233, AID2291, AID2363, AID2365, AID2366, AID2368, AID2369, AID2371, AID463124, AID463130, AID463131, AID463132, AID463146, AID463149] Panel member name: Serum-free Media. Type of series: toxicity.

Series [9] addresses Protein phosphatase methylesterase 1 (Homo sapiens, UniProt Q9Y570). Briefly: Late stage assay provider results from the probe development effort to identify inhibitors of protein phosphatase methylesterase 1 (PME-1): Gel-based Activity-Based Protein Profiling (ABPP) IC50 Set 2. [Related pubchem assays (depositor defined):AID2130, AID2143, AID2171, AID2174, AID2177, AID2232, AID2233, AID2291, AID2363, AID2365, AID2366, AID2368, AID2369, AID2371, AID463090, AID463091]. Type of series: functional.

Series [10] can be described thus: Late stage assay provider results from the probe development effort to identify inhibitors of Protein Phosphatase Methylesterase 1 (PME-1): luminescence-based biochemical dose response assay to determine cytotoxicity of inhibitor compounds. [Related pubchem assays (depositor defined):AID2130, AID2143, AID2171, AID2174, AID2177, AID2232, AID2233, AID2291, AID2363, AID2365, AID2366, AID2368, AID2369, AID2371, AID463124, AID463130, AID463131, AID463132, AID463146, AID463149] Panel member name: Fetal Calf Serum. Format: toxicity.

In series [11] the target is T3, Kappa-type opioid receptor (Homo sapiens, UniProt P41145). Type of series: functional.
T3 sequence (P41145 whole entry): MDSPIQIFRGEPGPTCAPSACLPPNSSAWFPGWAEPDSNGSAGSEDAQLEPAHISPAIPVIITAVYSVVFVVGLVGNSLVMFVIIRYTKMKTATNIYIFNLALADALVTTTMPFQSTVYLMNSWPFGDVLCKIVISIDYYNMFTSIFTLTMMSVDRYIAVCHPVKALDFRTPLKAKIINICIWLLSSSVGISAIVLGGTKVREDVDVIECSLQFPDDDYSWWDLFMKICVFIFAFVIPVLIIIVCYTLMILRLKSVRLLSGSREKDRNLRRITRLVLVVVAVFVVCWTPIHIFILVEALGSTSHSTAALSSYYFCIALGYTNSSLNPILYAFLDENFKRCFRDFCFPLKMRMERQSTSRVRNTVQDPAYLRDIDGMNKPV
Series [12] addresses T4, Delta-type opioid receptor (Homo sapiens, UniProt P41143). Briefly: HTS Image-Based Screen for Antagonists of the DOR Receptor. [Related pubchem assays (depositor defined):AID1777, AID1785, AID1786, AID2133]. Type of series: functional.
The target of series [13] is T4, Delta-type opioid receptor. Briefly: HTS Image-Based Screen for Agonists of the DOR Receptor. [Related pubchem assays (depositor defined):AID1777, AID1786, AID2133]. Type of series: functional.
The target of series [14] is Mu-type opioid receptor (Homo sapiens, UniProt P35372). Description: HTS Image-Based Screen for Agonists of the MOR Receptor. [Related pubchem assays (depositor defined):AID1777, AID1785, AID1786, AID2133]. Type of series: functional.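 Also: imaging of beta-arrestin GFP recruitment into spots after receptor activation.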
Sequence of Mu-type opioid receptor (P35372 whole entry): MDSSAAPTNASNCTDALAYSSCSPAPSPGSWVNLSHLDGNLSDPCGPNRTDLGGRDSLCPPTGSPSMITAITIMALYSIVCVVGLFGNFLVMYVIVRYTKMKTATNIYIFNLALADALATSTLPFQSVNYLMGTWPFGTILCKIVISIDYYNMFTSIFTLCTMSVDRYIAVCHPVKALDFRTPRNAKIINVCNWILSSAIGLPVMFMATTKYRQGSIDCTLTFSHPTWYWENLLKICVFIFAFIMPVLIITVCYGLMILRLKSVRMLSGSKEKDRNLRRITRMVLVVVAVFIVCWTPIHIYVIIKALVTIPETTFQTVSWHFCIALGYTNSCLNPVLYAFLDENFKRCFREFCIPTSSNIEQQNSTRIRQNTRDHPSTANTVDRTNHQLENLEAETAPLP
Series [15] addresses T3, Kappa-type opioid receptor. Format: functional. This is another data set of the same source.
The target of series [16] is T5, SUMO-activating enzyme (Homo sapiens, UniProt Q9UBT2). Briefly: blockers of UBC9-mediated SUMO conjugation – biochemical, AlphaScreen, SUMOylation inhibitor project, confirmation (AID 2018). Type of series: functional.
T5 sequence (Q9UBE0 whole entry): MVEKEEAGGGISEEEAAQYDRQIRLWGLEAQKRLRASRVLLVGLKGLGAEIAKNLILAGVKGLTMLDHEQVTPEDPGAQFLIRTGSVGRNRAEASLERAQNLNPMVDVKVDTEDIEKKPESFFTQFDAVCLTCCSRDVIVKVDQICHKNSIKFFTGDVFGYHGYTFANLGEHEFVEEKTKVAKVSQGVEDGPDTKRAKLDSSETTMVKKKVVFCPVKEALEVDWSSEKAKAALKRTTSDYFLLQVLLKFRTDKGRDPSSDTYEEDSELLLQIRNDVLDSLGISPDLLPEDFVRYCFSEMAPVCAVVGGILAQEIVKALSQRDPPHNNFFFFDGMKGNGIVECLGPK
T5 sequence (Q9UBT2 whole entry): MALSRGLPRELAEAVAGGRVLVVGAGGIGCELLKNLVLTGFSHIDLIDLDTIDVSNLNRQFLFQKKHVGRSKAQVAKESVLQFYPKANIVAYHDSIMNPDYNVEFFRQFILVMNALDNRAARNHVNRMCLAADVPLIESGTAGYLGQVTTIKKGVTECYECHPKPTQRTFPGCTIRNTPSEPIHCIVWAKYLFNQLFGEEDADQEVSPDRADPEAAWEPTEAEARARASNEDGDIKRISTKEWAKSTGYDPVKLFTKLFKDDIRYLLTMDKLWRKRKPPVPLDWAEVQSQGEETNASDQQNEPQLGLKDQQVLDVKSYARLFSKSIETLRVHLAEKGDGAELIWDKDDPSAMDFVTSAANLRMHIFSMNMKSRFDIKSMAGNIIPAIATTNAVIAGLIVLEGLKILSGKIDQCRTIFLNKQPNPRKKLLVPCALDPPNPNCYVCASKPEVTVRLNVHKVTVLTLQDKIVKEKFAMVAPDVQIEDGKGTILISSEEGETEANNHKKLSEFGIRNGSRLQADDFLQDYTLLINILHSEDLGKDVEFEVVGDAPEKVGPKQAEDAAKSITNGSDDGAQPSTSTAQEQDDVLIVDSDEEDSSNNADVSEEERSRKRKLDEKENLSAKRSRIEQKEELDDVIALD
Series [17] deals with T5, SUMO-activating enzyme. Description: blockers of SAE1/SAE2–UBC9 SUMO transfer – biochemical, HTRF, uHTS, primary screen (AID 2006). Format: protein-complex assay. A general note: In TR-FRET formats the signal depends on donor and acceptor labels being close together.
Series [18] deals with T6, Replicative DNA helicase DnaB (Mycobacterium tuberculosis, UniProt P9WMR3).
T6 sequence (P9WMR3 whole entry): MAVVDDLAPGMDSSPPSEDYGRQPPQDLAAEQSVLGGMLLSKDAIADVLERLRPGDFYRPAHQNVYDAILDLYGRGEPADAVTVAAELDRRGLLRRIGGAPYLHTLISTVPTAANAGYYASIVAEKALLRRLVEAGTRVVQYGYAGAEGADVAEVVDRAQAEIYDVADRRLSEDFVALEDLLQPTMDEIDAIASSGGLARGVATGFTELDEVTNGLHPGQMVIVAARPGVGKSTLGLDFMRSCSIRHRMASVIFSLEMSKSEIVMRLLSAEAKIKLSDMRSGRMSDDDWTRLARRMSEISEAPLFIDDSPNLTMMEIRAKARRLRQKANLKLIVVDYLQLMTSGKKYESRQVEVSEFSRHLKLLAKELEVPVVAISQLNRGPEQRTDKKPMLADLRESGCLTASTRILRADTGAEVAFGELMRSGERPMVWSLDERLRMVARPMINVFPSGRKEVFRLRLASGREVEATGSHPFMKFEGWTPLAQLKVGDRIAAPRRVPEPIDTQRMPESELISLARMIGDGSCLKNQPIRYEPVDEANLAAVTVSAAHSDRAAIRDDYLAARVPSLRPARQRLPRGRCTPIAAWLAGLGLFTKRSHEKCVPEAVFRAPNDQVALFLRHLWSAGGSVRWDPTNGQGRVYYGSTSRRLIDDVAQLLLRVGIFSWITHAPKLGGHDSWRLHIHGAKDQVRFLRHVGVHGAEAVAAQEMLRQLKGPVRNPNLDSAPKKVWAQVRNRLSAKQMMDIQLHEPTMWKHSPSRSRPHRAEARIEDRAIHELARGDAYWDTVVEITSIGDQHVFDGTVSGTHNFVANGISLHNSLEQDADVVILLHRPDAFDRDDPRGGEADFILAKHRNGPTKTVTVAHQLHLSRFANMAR
Briefly: DnaB intein splicing inhibitors, dose response, biochemical, cell-free fluorescence (AID 449749). Type of series: functional.

Series [19] has as its target Hexokinase HKDC1 (Homo sapiens, UniProt Q2TB90). Briefly: inhibition of HKDC1 glucose phosphorylation – biochemical, W721R variant, dose response (AID 504729). Format: functional.
Series [20] addresses SUMO E1/E2 (Homo sapiens, UniProt P63279+Q9UBE0+Q9UBT2). Briefly: SAR analysis of SUMOylation using HTRF in an in-Vitro dose response assay. [Related pubchem assays (depositor defined):AID2006, AID2011, AID2018, AID2069, AID2658]. Format: functional.
The target of series [21] is Eukaryotic translation initiation factor 4E (Mus musculus, UniProt P63073). Description: blockers of eIF4G binding by eIF4E – biochemical, TR-FRET, dose response (AID 855).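 Also: potency for disrupting eIF4E binding to eIF4GI seen as loss of FRET.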 Type of series: functional.
The target of series [22] is T7, Protein RecA (Mycobacterium tuberculosis, UniProt P9WHJ3).
T7 sequence (P9WHJ3 whole entry): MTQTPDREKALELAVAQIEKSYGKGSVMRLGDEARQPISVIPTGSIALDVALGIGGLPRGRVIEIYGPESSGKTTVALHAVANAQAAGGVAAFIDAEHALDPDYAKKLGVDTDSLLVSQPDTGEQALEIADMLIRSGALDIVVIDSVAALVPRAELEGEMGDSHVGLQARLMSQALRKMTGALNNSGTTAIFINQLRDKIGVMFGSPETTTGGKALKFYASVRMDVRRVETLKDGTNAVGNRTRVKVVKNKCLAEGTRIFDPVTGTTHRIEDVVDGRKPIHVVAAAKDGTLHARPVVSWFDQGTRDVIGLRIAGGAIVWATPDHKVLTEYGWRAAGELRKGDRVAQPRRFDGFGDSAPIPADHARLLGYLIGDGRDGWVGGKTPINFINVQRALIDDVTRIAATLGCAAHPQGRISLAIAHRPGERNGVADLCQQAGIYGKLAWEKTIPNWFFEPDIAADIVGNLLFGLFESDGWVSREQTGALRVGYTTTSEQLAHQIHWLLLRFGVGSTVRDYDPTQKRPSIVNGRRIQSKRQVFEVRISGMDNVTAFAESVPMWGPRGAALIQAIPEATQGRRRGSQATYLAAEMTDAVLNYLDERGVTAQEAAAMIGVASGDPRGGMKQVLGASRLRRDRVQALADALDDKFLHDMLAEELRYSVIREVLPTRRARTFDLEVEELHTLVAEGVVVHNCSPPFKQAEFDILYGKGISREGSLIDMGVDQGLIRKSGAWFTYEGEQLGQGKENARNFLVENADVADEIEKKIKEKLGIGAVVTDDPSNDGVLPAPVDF
Description: Fluorescence Cell-Free Homogeneous Dose Retest to Identify Inhibitors of RecA-Intein Splicing Activity. [Related pubchem assays (depositor defined):AID2097, AID2223, AID489010, AID492950]. Format: functional.

Series [23] is described as follows: Luminescence Cell-Based Dose Confirmation HTS to Identify Inhibitors of Platelet Dense Granule Release. [Related pubchem assays: 1663 (Primary HTS), 1678 (Summary of Project)]. Format: functional.
Series [24] in a line: Fluorescence Cell-Based Dose Response to Identify Inhibitors of Thrombin Receptor-Activating Peptide SFLLRN-Mediated P-Selectin Induction on Platelets. [Related pubchem assays: 1663 (Primary HTS), 1889 (retest at dose ), 1891 (counterscreen), 1678 (Project Summary)]. Type of series: functional.
The target in series [25] is Luciferin 4-monooxygenase (Photinus pyralis, UniProt P08659). Briefly: inhibition of purified Photinus pyralis luciferase – biochemical, luminescence, dose response (AID 1891).
The target in series [26] is Lysine-specific demethylase 4C (Homo sapiens, UniProt Q9H3R0). Briefly: inhibition of JMJD2C H3K9me3 demethylation – biochemical, DELFIA europium, cherry-picked samples, dose response (AID 488835). Format: functional.

The source made the active and inactive calls.

T2 sequence (P49327 whole entry): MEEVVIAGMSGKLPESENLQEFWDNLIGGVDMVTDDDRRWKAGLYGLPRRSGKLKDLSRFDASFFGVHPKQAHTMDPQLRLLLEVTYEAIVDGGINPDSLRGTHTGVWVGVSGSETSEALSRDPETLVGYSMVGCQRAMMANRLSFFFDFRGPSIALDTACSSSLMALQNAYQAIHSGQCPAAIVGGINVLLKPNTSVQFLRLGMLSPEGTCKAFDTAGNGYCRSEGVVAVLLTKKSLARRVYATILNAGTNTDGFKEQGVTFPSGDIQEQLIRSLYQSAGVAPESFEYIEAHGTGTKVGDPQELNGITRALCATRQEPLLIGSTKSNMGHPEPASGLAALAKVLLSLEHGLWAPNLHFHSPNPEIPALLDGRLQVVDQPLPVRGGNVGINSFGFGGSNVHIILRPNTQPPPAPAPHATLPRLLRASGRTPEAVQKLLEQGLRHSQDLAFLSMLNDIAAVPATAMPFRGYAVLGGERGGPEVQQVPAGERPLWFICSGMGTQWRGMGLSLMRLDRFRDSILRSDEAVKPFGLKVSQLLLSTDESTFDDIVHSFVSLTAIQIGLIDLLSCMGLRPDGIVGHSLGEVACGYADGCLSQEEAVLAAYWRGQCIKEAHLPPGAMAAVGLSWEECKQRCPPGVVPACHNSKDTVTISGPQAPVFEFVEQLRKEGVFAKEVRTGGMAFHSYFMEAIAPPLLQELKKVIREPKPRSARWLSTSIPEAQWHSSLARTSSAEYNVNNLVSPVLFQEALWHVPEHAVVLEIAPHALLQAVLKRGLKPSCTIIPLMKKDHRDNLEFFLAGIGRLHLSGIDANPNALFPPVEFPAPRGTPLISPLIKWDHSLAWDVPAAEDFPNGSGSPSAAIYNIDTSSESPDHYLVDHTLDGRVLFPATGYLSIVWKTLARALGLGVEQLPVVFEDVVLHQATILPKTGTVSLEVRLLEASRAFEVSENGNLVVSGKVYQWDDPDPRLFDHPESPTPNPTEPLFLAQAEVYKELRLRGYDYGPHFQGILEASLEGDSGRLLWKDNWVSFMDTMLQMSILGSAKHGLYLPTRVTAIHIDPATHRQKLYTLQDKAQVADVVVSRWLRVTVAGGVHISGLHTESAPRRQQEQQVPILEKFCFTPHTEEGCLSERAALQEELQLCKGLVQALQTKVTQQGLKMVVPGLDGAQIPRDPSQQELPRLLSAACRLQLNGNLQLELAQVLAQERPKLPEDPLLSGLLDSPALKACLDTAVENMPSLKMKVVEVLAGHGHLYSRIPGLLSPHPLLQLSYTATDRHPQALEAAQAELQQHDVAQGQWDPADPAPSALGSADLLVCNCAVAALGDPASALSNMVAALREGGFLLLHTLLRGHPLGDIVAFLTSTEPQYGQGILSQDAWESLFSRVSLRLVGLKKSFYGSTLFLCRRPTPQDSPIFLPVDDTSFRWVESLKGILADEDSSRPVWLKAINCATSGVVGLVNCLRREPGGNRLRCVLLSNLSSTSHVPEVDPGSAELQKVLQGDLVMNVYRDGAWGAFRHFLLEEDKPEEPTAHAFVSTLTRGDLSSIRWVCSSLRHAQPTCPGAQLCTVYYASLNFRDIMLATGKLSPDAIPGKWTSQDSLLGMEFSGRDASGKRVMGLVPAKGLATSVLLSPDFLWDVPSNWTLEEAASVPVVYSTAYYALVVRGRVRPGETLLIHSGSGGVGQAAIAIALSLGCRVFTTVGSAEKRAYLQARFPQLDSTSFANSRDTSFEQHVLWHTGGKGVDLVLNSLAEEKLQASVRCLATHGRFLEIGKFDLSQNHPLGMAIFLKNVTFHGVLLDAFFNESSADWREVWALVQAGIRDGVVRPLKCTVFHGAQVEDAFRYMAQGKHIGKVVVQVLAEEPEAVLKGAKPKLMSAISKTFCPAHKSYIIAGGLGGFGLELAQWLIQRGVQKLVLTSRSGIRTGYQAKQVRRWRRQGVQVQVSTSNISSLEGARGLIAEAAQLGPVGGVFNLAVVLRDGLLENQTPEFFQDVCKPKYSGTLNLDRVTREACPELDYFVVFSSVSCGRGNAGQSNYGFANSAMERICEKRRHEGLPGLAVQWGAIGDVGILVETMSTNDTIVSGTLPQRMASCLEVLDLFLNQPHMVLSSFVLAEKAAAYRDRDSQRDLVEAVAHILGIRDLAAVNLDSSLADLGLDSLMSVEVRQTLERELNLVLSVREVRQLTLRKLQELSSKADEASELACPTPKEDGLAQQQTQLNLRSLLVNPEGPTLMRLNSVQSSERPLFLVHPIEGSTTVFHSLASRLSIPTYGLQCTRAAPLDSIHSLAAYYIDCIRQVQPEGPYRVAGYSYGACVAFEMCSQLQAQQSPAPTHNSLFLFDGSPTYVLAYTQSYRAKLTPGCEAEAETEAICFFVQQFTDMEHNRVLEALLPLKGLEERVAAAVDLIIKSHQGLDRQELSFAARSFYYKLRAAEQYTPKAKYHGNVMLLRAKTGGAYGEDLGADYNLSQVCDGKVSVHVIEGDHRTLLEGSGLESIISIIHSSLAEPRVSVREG
T4 sequence (P41143 whole entry): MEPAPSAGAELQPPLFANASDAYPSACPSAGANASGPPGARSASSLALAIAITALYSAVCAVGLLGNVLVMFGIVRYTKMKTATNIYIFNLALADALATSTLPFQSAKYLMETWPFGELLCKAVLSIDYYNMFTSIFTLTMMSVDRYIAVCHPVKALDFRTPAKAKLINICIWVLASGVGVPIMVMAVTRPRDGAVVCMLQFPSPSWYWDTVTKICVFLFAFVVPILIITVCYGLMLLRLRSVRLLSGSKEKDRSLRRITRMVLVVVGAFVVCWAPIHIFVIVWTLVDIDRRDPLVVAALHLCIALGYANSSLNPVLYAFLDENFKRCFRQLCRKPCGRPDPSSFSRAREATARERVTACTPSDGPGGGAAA
Sequence of SUMO E1/E2 (Q9UBE0 whole entry): as the sequence (Q9UBE0 whole entry) above
Sequence of SUMO E1/E2 (Q9UBT2 whole entry): as the sequence (Q9UBT2 whole entry) above
Sequence of SUMO E1/E2 (P63279 whole entry): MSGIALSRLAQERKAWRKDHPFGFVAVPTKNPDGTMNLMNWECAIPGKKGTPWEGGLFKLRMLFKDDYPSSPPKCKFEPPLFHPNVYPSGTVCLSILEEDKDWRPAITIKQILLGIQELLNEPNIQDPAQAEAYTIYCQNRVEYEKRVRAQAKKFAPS

Broadly, the IC50 is the concentration needed to halve the response being measured. As to `N#Cc1c(-c2ccccc2)ccn(Cc2cccc(Cl)c2)c1=O`, the IC50 in [1] and in series [2] was > 119 µM (inactive) throughout.
`NS(=O)(=O)c1ccc2c(c1)oc(=O)c1cc(S(N)(=O)=O)ccc12`: the IC50 in [3] is 7.73 µM (active); in series [4], 2.51 µM (active); in [5], 11.8 µM (active).
Broadly, the CC50 is the concentration that lowers cell viability or growth by half. `COC(=O)N1C(=O)[C@](c2ccccc2)(C2CCCC2)N1C(=O)OC`: the figures for the IC50 in series [6], in [7] and in series [9] were 0.884 µM (active), 0.715 µM (active) and 0.01 µM (active), respectively. For the same molecule, the CC50 in series [8] and in series [10] was > 50 µM (inactive) in each case.
As a reminder, the EC50 is the midpoint of the concentration-response curve. `O=C1C2ON(c3ccccc3)C(c3cccnc3)C2C(=O)N1c1ccc(Cl)c(Cl)c1` (stereo not drawn): the EC50 was 26.4 µM in series [11], > 32 µM (inactive) in series [13], > 32 µM (inactive) in [14] and > 35 µM in [15]. Also, the IC50 was 9.19 µM (active) in series [6], 8.26 µM (active) in series [7] and > 32 µM (inactive) in series [12].
A word on the AC50: it is the concentration giving half of the maximal activity seen. Take `O=C(/C=C/c1cccs1)Nc1scc(-c2ccccc2)c1C(=O)O`: the IC50 in [16] is 2.74 µM (active); in series [17], 9.84 µM (active); in series [19], 7 µM (active); in [20], 6.11 µM (active); in series [21] it was 5.76 µM (active). In addition, in series [18], the half-maximal activity concentration (AC50) was 23.3 µM (active). The half-maximal effective concentration (EC50) in series [22] was 10.6 µM (active).
For `COc1ccc(/C=N/N(C)c2cc(=O)n(C)c(=O)[nH]2)cc1OC`, the EC50 is 0.693 µM (active) in series [23], < 1 µM (active) in [24] and > 112 µM (not active) in series [25]. In addition, in [26], the half-maximal activity concentration (AC50) was 17.8 µM (active).

The values are drawn from ChEMBL document CHEMBL1201862, “PubChem BioAssay data set” (2004).
